Laboratory results: patent US20120045393A1 (priority 2009, published 2012)
Non-standard residues stand in square brackets, D forms with d. Residues, ends and D or L forms follow the SMILES beside them. *: point of attachment. DOTA = O=C(O)CN1CCN(CC(=O)O)CCN(CC(=O)*)CCN(CC(=O)O)CC1; Bpa = N[C@@H](Cc1ccc(C(=O)c2ccccc2)cc1)C(=O)O; Ala(4-thiazolyl) = N[C@@H](Cc1cscn1)C(=O)O; d2Nal = N[C@H](Cc1ccc2ccccc2c1)C(=O)O; 3Pal = N[C@@H](Cc1cccnc1)C(=O)O; azaGly = NNC(=O)O; Sar = CNCC(=O)O

tested on: LHRH binding sites on human ovarian cancer cells (EFO-27); details: not given
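Note: Cell-associated radioactivity on confluent EFO-27 monolayers in 96-well plates, measured by microplate scintillation counting.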

Row | Compound | EC50 [nM]
1 | CN(CC(=O)N[C@@H](Cc1c[nH]cn1)C(=O)N[C@@H](Cc1c[nH]c2ccccc12)C(=O)N[C@@H](CO)C(=O)N[C@@H](Cc1c[nH]cn1)C(=O)N[C@H](CCCNC(=N)N)C(=O)N[C@@H](Cc1c[nH]c2ccccc12)C(=O)N[C@@H](Cc1ccccc1)C(=O)N1CCC[C@H]1C(=O)NNC(N)=O)C(=O)CN1CCN(CC(=O)O)CCN(CC(=O)O)CCN(CC(=O)O)CC1 [BRU-2730] (HELM PEPTIDE1{[O=C(O)CN1CCN(CC(=O)O)CCN(CC(=O)[*:2])CCN(CC(=O)O)CC1].[Sar].H.W.S.H.[dR].W.F.P.[O=C(NN[*:1])[*:2]].[am]}$$$$V2.0) | 12900
2 | CNCC(=O)N[C@@H](CCCNC(=N)N)C(=O)N[C@@H](Cc1c[nH]c2ccccc12)C(=O)N[C@@H](CO)C(=O)N[C@@H](Cc1c[nH]cn1)C(=O)N[C@H](CCCNC(=N)N)C(=O)N[C@@H](Cc1c[nH]c2ccccc12)C(=O)N[C@@H](Cc1ccc(C(=O)c2ccccc2)cc1)C(=O)N1CCC[C@H]1C(=O)NCCNC(=O)CN1CCN(CC(=O)O)CCN(CC(=O)O)CCN(CC(=O)O)CC1 [compound 3103] | 170 ± 70
3 | N=C(N)NCCC[C@H](NC(=O)[C@@H](Cc1ccc2ccccc2c1)NC(=O)CN1CCN(CC(=O)O)CCN(CC(=O)O)CCN(CC(=O)O)CC1)C(=O)N[C@@H](Cc1c[nH]c2ccccc12)C(=O)N[C@@H](CO)C(=O)N[C@@H](Cc1c[nH]cn1)C(=O)N[C@H](CCCNC(=N)N)C(=O)N[C@@H](Cc1c[nH]c2ccccc12)C(=O)N[C@@H](Cc1ccc(C(=O)c2ccccc2)cc1)C(=O)N1CCC[C@H]1C(=O)NCCO [compound 2970] | 510
4 | CNCC(=O)N[C@@H](CCCNC(=N)N)C(=O)N[C@@H](Cc1c[nH]c2ccccc12)C(=O)N[C@@H](CO)C(=O)N[C@@H](Cc1c[nH]cn1)C(=O)N[C@H](CCCNC(=N)N)C(=O)N[C@@H](Cc1c[nH]c2ccccc12)C(=O)N[C@@H](Cc1ccc(C(=O)c2ccccc2)cc1)C(=O)N1CCC[C@H]1C(=O)NCc1cccc(CNC(=O)CN2CCN(CC(=O)O)CCN(CC(=O)O)CCN(CC(=O)O)CC2)n1 [compound 3080] | 230 ± 100
5 | CNCC(=O)N[C@@H](Cc1c[nH]cn1)C(=O)N[C@@H](Cc1c[nH]c2ccccc12)C(=O)N[C@@H](CO)C(=O)N[C@@H](Cc1c[nH]cn1)C(=O)N[C@H](CCCNC(=N)N)C(=O)N[C@@H](Cc1c[nH]c2ccccc12)C(=O)N[C@@H](Cc1ccc(C(=O)c2ccccc2)cc1)C(=O)N1CCC[C@H]1C(=O)NCCNC(=O)CN1CCN(CC(=O)O)CCN(CC(=O)O)CCN(CC(=O)O)CC1 [compound 3079] | 590 ± 260
6 | CN(CC(=O)N[C@@H](Cc1c[nH]cn1)C(=O)N[C@@H](Cc1c[nH]c2ccccc12)C(=O)N[C@@H](CO)C(=O)N[C@@H](Cc1c[nH]cn1)C(=O)N[C@H](CCCNC(=N)N)C(=O)N[C@@H](Cc1c[nH]c2ccccc12)C(=O)N1CCC[C@H]1C(=O)NNC(N)=O)C(=O)CN1CCN(CC(=O)O)CCN(CC(=O)O)CCN(CC(=O)O)CC1 [BRU-2767] (HELM PEPTIDE1{[O=C(O)CN1CCN(CC(=O)O)CCN(CC(=O)[*:2])CCN(CC(=O)O)CC1].[Sar].H.W.S.H.[dR].W.P.[O=C(NN[*:1])[*:2]].[am]}$$$$V2.0) | 10000
7 | CN(CC(=O)N[C@@H](Cc1c[nH]cn1)C(=O)N[C@@H](Cc1c[nH]c2ccccc12)C(=O)N[C@@H](CO)C(=O)N[C@@H](Cc1c[nH]cn1)C(=O)N[C@H](CCCNC(=N)N)C(=O)N[C@@H](Cc1c[nH]c2ccccc12)C(=O)N[C@@H](Cc1ccc(C(=O)c2ccccc2)cc1)C(=O)N1CCC[C@H]1C(=O)NNC(N)=O)C(=O)c1ccc(CNC(=O)CN2CCN(CC(=O)O)CCN(CC(=O)O)CCN(CC(=O)O)CC2)cc1 [compound 2727] | 650
8 | CN(CC(=O)N[C@@H](Cc1c[nH]cn1)C(=O)N[C@@H](Cc1c[nH]c2ccccc12)C(=O)N[C@@H](CO)C(=O)N[C@@H](Cc1c[nH]cn1)C(=O)N[C@H](CCCNC(=N)N)C(=O)N[C@@H](Cc1c[nH]c2ccccc12)C(=O)N[C@@H](CCCNC(=N)N)C(=O)N1CCC[C@H]1C(=O)NNC(N)=O)C(=O)CN1CCN(CC(=O)O)CCN(CC(=O)O)CCN(CC(=O)O)CC1 [BRU-2723] (HELM PEPTIDE1{[O=C(O)CN1CCN(CC(=O)O)CCN(CC(=O)[*:2])CCN(CC(=O)O)CC1].[Sar].H.W.S.H.[dR].W.R.P.[O=C(NN[*:1])[*:2]].[am]}$$$$V2.0) | 2830
9 | CNCC(=O)N[C@@H](CCCNC(=N)N)C(=O)N[C@@H](Cc1c[nH]c2ccccc12)C(=O)N[C@@H](CO)C(=O)N[C@@H](Cc1c[nH]cn1)C(=O)N[C@H](CCCNC(=N)N)C(=O)N[C@@H](Cc1c[nH]c2ccccc12)C(=O)N[C@@H](Cc1ccc(C(=O)c2ccccc2)cc1)C(=O)N1CCC[C@H]1C(=O)NCCOCCNC(=O)CN1CCN(CC(=O)O)CCN(CC(=O)O)CCN(CC(=O)O)CC1 [compound 3039] | 280 ± 30
10 | CN(CC(=O)N[C@@H](Cc1c[nH]c2ccccc12)C(=O)N[C@@H](CO)C(=O)N[C@@H](Cc1cscn1)C(=O)N[C@H](CCCNC(=N)N)C(=O)N[C@@H](Cc1c[nH]c2ccccc12)C(=O)N[C@@H](Cc1ccc(C(=O)c2ccccc2)cc1)C(=O)N1CCC[C@H]1C(=O)NNC(N)=O)C(=O)CN1CCN(CC(=O)O)CCN(CC(=O)O)CCN(CC(=O)O)CC1 [compound 2740] ({DOTA}-[Sar]WS[Ala(4-thiazolyl)][dR]W[Bpa]P[azaGly]-NH2) | 5530
11 | N=C(N)NCCC[C@H](NC(=O)[C@@H](Cc1ccc2ccccc2c1)NC(=O)CN1CCN(CC(=O)O)CCN(CC(=O)O)CCN(CC(=O)O)CC1)C(=O)N[C@@H](Cc1c[nH]c2ccccc12)C(=O)N[C@@H](Cc1c[nH]c2ccccc12)C(=O)N[C@@H](Cc1c[nH]cn1)C(=O)N[C@H](CCCNC(=N)N)C(=O)N[C@@H](Cc1c[nH]c2ccccc12)C(=O)N[C@@H](Cc1ccc(C(=O)c2ccccc2)cc1)C(=O)N1CCC[C@H]1C(=O)NNC(N)=O [compound 3114] ({DOTA}-[d2Nal]RWWH[dR]W[Bpa]P[azaGly]-NH2) | 11500
12 | CN(CC(=O)N[C@@H](Cc1c[nH]cn1)C(=O)N[C@@H](Cc1c[nH]c2ccccc12)C(=O)N[C@@H](CO)C(=O)N[C@@H](Cc1c[nH]cn1)C(=O)N[C@H](CCCNC(=N)N)C(=O)N[C@@H](Cc1c[nH]c2ccccc12)C(=O)N[C@@H](Cc1c[nH]c2ccccc12)C(=O)N1CCC[C@H]1C(=O)NNC(N)=O)C(=O)CN1CCN(CC(=O)O)CCN(CC(=O)O)CCN(CC(=O)O)CC1 [BRU-2724] (HELM PEPTIDE1{[O=C(O)CN1CCN(CC(=O)O)CCN(CC(=O)[*:2])CCN(CC(=O)O)CC1].[Sar].H.W.S.H.[dR].W.W.P.[O=C(NN[*:1])[*:2]].[am]}$$$$V2.0) | 2670

More lines, now with the values ahead:

Row | EC50 [nM] | Compound
13 | 1620 | CN(CC(=O)N[C@@H](Cc1cccnc1)C(=O)N[C@@H](Cc1c[nH]c2ccccc12)C(=O)N[C@@H](CO)C(=O)N[C@@H](Cc1c[nH]cn1)C(=O)N[C@H](CCCNC(=N)N)C(=O)N[C@@H](Cc1c[nH]c2ccccc12)C(=O)N[C@@H](Cc1ccc(C(=O)c2ccccc2)cc1)C(=O)N1CCC[C@H]1C(=O)NNC(N)=O)C(=O)CN1CCN(CC(=O)O)CCN(CC(=O)O)CCN(CC(=O)O)CC1 [BRU-2818] ({DOTA}-[Sar][3Pal]WSH[dR]W[Bpa]P[azaGly]-NH2)
14 | 250 | CNCC(=O)N[C@@H](Cc1c[nH]cn1)C(=O)N[C@@H](Cc1c[nH]c2ccccc12)C(=O)N[C@@H](CO)C(=O)N[C@@H](Cc1c[nH]cn1)C(=O)N[C@H](CCCNC(=N)N)C(=O)N[C@@H](Cc1c[nH]c2ccccc12)C(=O)N[C@@H](Cc1ccc(O)cc1)C(=O)N1CCC[C@H]1C(=O)NNC(N)=O [BRU-2439, [Sar^1, Darg^6, azaGly^10]LHRH-II] (HELM PEPTIDE1{[Sar].H.W.S.H.[dR].W.Y.P.[O=C(NN[*:1])[*:2]].[am]}$$$$V2.0; N-terminus assumed)
15 | ≤ 200 | N=C(N)NCCC[C@H](NC(=O)[C@H](N)Cc1ccc2ccccc2c1)C(=O)N[C@@H](Cc1c[nH]c2ccccc12)C(=O)N[C@@H](CO)C(=O)N[C@@H](Cc1c[nH]cn1)C(=O)N[C@H](CCCNC(=N)N)C(=O)N[C@@H](Cc1c[nH]c2ccccc12)C(=O)N[C@@H](Cc1ccc(C(=O)c2ccccc2)cc1)C(=O)N1CCC[C@H]1C(=O)NCCCCNC(=O)CN1CCN(CC(=O)O)CCN(CC(=O)O)CCN(CC(=O)O)CC1 [BRU-3042]
16 | 230 to 500 | CNCC(=O)N[C@@H](CCCNC(=N)N)C(=O)N[C@@H](Cc1c[nH]c2ccccc12)C(=O)N[C@@H](CO)C(=O)N[C@@H](Cc1c[nH]cn1)C(=O)N[C@H](CCCNC(=N)N)C(=O)N[C@@H](Cc1c[nH]c2ccccc12)C(=O)N[C@@H](Cc1ccc(C(=O)c2ccccc2)cc1)C(=O)N1CCC[C@H]1C(=O)NCCOCCOCCNC(=O)CN1CCN(CC(=O)O)CCN(CC(=O)O)CCN(CC(=O)O)CC1 [BRU-3043]
17 | 4200 | N=C(N)NCCC[C@H](NC(=O)[C@@H](Cc1ccc2ccccc2c1)NC(=O)CN1CCN(CC(=O)O)CCN(CC(=O)O)CCN(CC(=O)O)CC1)C(=O)N[C@@H](Cc1c[nH]c2ccccc12)C(=O)N[C@@H](CC(=O)O)C(=O)N[C@@H](Cc1c[nH]cn1)C(=O)N[C@H](CCCNC(=N)N)C(=O)N[C@@H](Cc1c[nH]c2ccccc12)C(=O)N[C@@H](Cc1ccc(C(=O)c2ccccc2)cc1)C(=O)N1CCC[C@H]1C(=O)NNC(N)=O [BRU-2954] ({DOTA}-[d2Nal]RWDH[dR]W[Bpa]P[azaGly]-NH2)

same assay, conditions: EFO-27 cells, competition with [125I-Tyr8]BRU-2477, 90 min

Row | Compound | EC50 [nM]
18 | N=C(N)NCCC[C@H](NC(=O)[C@H]1Cc2c([nH]c3ccccc23)CN1C(=O)CNC(=O)CN1CCN(CC(=O)O)CCN(CC(=O)O)CCN(CC(=O)O)CC1)C(=O)N[C@@H](Cc1c[nH]c2ccccc12)C(=O)N[C@@H](CO)C(=O)N[C@@H](Cc1c[nH]cn1)C(=O)N[C@H](CCCNC(=N)N)C(=O)N[C@@H](Cc1c[nH]c2ccccc12)C(=O)N[C@@H](Cc1ccc(C(=O)c2ccccc2)cc1)C(=O)N1CCC[C@H]1C(=O)NNC(N)=O [BRU-3068] | 240

same assay, conditions: Table 15: C-terminus chelator-functionalized peptides; EFO-27 cells, vs [125I-Tyr8]BRU-2477

Row | Compound | EC50 [nM]
19 | CNCC(=O)N[C@@H](CCCNC(=N)N)C(=O)N[C@@H](Cc1c[nH]c2ccccc12)C(=O)N[C@@H](CO)C(=O)N[C@@H](Cc1c[nH]cn1)C(=O)N[C@H](CCCNC(=N)N)C(=O)N[C@@H](Cc1c[nH]c2ccccc12)C(=O)N[C@@H](Cc1ccc(C(=O)c2ccccc2)cc1)C(=O)N1CCC[C@H]1CNC(=O)CN1CCN(CC(=O)O)CCN(CC(=O)O)CCN(CC(=O)O)CC1 [compound 3117] (HELM PEPTIDE1{[Sar].R.W.S.H.[dR].W.[O=C(c1ccccc1)c1ccc(C[C@H](N[*:1])C(=O)[*:2])cc1].[O=C(O)CN1CCN(CC(=O)O)CCN(CC(=O)NC[C@@H]2CCCN2[*:1])CCN(CC(=O)O)CC1]}$$$$V2.0; N-terminus assumed) | 340

same assay, conditions: ratio of EC50 to BRU-2813 (EC50=0.33 μM)

Row | Compound | binding potency, times lower than BRU-2813
20 | N=C(N)NCCC[C@H](NC(=O)[C@@H](Cc1ccc2ccccc2c1)NC(=O)CN1CCN(CC(=O)O)CCN(CC(=O)O)CCN(CC(=O)O)CC1)C(=O)N[C@@H](Cc1c[nH]c2ccccc12)C(=O)N[C@@H](CC(=O)O)C(=O)N[C@@H](Cc1c[nH]cn1)C(=O)N[C@H](CCCNC(=N)N)C(=O)N[C@@H](Cc1c[nH]c2ccccc12)C(=O)N[C@@H](Cc1ccc(C(=O)c2ccccc2)cc1)C(=O)N1CCC[C@H]1C(=O)NNC(N)=O [BRU-2954] ({DOTA}-[d2Nal]RWDH[dR]W[Bpa]P[azaGly]-NH2) | ~13
